# Measurements: ChEMBL document CHEMBL4765228, “Indole-like Trk receptor antagonists” (Eur J Med Chem, 2016)
# Columns and labels:
# [1] = target: T1, Interleukin-1 receptor-associated kinase 4 (Homo sapiens) (UniProt Q9NWZ3); experiment: Inhibition of human untagged IRAK4 assessed as residual activity at 0.1 uM relative to control
# T1 sequence (whole entry): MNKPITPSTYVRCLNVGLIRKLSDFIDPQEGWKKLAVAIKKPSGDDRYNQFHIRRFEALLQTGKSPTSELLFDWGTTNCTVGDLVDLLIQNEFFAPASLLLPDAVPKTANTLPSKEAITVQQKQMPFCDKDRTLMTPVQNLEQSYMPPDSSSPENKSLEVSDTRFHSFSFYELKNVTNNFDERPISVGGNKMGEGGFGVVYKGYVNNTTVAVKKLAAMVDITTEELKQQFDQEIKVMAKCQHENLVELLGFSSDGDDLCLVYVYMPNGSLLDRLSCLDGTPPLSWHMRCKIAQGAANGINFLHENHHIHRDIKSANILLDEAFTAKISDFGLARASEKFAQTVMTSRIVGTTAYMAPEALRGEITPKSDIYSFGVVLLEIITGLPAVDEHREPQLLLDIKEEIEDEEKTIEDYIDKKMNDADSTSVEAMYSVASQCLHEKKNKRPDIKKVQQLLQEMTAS
# [2] = target: T2, Serine/threonine-protein kinase Sgk1 (Homo sapiens) (UniProt O00141); experiment: Inhibition of human SGK1 assessed as residual activity at 1 uM relative to control
# T2 sequence (whole entry): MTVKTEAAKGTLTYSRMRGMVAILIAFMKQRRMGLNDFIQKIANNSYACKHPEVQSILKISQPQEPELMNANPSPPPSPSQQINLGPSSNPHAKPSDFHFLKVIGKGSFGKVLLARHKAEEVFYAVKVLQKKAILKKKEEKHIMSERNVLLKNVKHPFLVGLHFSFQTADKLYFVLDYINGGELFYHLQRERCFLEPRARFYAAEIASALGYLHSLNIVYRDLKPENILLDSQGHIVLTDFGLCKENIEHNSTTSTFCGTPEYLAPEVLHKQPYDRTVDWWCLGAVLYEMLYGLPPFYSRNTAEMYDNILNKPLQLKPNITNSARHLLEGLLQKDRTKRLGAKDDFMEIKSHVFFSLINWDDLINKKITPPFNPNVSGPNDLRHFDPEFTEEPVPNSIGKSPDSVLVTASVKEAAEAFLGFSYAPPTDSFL
# [3] = target: T2, Serine/threonine-protein kinase Sgk1 (Homo sapiens); experiment: Inhibition of human SGK1 assessed as residual activity at 0.1 uM relative to control
# [4] = target: Myosin light chain kinase, smooth muscle (Homo sapiens) (UniProt Q15746); experiment: Inhibition of human MYLK assessed as residual activity at 0.1 uM relative to control
# [5] = target: Glycogen synthase kinase-3 beta (Homo sapiens) (UniProt P49841); experiment: Inhibition of human GSK3-beta assessed as residual activity at 0.1 uM relative to control
# [6] = target: SRSF protein kinase 1 (Homo sapiens) (UniProt Q96SB4); experiment: Inhibition of human SRPK1 assessed as residual activity at 0.1 uM relative to control
# [7] = target: T3, Dual specificity protein kinase TTK (Homo sapiens) (UniProt P33981); experiment: Inhibition of human TTK assessed as residual activity at 0.1 uM relative to control
# T3 sequence (whole entry): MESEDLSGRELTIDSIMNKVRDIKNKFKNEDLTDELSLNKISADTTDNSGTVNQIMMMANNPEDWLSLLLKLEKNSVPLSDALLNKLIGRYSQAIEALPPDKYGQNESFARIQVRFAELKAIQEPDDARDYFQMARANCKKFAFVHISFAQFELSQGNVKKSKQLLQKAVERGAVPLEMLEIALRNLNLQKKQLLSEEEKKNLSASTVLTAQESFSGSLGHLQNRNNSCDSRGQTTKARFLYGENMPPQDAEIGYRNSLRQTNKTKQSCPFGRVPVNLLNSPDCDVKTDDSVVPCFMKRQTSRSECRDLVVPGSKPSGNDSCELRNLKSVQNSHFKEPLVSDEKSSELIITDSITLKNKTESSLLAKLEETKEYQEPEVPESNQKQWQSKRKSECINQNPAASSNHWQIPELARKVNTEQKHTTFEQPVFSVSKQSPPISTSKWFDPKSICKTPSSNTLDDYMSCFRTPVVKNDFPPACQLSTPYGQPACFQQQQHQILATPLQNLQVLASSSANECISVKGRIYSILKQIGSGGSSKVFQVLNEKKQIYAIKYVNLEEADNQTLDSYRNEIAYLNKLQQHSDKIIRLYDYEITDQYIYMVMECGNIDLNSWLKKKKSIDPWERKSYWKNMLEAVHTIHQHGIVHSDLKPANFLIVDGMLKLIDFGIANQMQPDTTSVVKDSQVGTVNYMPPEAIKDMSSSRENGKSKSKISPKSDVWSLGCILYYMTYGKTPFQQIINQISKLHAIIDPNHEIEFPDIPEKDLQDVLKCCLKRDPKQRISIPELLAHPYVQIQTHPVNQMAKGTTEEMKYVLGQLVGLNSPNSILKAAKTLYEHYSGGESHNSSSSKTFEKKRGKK
# [8] = target: High affinity nerve growth factor receptor (Homo sapiens, UniProt P04629); experiment: Inhibition of human TRKA assessed as residual activity at 0.1 uM relative to control
# [9] = target: T3, Dual specificity protein kinase TTK (Homo sapiens); experiment: Inhibition of human TTK assessed as residual activity at 1 uM relative to control
# [10] = target: Serine/threonine-protein kinase PAK 4 (Homo sapiens) (UniProt O96013); experiment: Inhibition of human PAK4 assessed as residual activity at 0.1 uM relative to control
# [11] = target: Receptor-interacting serine/threonine-protein kinase 2 (Homo sapiens) (UniProt O43353); experiment: Inhibition of human RIPK2 assessed as residual activity at 1 uM relative to control
# [12] = target: Serine/threonine-protein kinase Nek6 (Homo sapiens) (UniProt Q9HC98); experiment: Inhibition of human NEK6 assessed as residual activity at 0.1 uM relative to control
# [13] = target: Tyrosine-protein kinase JAK2 (Homo sapiens) (UniProt O60674); experiment: Inhibition of human JAK2 assessed as residual activity at 0.1 uM relative to control
# [14] = target: Casein kinase II subunit alpha (Homo sapiens) (UniProt P68400); experiment: Inhibition of human CK2alpha1 assessed as residual activity at 0.1 uM relative to control
# Chain of Casein kinase II subunit alpha (Homo sapiens) (P68400 whole entry, looked up): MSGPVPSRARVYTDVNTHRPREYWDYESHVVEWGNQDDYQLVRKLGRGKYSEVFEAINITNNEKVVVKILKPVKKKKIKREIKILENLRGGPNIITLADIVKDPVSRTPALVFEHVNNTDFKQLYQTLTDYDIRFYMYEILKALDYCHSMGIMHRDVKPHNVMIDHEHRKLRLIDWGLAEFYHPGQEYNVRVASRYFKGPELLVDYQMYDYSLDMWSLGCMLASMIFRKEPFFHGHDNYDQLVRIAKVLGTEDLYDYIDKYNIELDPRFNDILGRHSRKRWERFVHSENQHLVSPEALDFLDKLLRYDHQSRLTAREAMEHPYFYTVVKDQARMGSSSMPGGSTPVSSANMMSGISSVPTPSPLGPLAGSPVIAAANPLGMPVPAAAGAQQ
# Chain of Serine/threonine-protein kinase Nek6 (Homo sapiens) (Q9HC98 whole entry): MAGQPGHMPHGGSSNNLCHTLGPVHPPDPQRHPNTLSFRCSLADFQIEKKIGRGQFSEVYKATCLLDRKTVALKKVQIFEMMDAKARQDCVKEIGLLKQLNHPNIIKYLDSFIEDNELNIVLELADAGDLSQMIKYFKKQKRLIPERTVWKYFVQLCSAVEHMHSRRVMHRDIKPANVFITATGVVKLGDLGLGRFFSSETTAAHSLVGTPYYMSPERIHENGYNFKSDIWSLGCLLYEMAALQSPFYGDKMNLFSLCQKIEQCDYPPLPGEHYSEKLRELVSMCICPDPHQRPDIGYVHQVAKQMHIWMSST
# Chain of SRSF protein kinase 1 (Homo sapiens) (Q96SB4 whole entry): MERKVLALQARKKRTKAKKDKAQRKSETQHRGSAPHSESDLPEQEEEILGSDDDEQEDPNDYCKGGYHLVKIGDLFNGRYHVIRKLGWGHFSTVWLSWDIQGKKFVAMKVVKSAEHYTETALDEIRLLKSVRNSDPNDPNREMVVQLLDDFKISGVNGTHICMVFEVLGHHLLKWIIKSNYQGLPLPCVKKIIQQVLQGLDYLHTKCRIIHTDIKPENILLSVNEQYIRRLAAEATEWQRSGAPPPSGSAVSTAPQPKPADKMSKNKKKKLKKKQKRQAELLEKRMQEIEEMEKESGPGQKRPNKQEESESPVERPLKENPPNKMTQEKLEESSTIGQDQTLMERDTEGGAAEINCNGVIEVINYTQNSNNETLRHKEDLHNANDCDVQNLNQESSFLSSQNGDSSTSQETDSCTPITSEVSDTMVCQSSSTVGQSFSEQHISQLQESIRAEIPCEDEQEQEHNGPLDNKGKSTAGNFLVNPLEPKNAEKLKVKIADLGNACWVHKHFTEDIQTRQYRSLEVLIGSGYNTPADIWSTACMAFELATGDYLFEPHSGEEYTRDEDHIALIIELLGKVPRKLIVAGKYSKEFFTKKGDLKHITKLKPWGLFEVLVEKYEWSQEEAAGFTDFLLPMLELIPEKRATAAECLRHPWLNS
# Chain of Serine/threonine-protein kinase PAK 4 (Homo sapiens) (O96013 whole entry, looked up): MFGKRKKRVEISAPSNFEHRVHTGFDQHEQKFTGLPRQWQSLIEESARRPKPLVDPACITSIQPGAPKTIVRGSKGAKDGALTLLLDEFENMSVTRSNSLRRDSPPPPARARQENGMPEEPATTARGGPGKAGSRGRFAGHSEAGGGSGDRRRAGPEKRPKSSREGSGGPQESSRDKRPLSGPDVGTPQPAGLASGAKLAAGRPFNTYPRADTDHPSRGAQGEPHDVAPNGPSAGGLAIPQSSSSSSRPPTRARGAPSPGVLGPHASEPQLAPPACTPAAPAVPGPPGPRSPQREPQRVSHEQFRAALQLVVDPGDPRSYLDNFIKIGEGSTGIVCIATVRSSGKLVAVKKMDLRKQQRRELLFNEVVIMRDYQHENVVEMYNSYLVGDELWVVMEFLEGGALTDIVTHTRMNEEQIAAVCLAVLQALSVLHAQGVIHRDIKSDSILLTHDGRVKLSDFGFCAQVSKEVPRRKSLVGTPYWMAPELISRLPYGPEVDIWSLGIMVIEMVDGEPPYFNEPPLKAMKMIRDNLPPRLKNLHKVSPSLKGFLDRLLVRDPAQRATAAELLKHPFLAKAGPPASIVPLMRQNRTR
# Chain of Tyrosine-protein kinase JAK2 (Homo sapiens) (O60674 whole entry): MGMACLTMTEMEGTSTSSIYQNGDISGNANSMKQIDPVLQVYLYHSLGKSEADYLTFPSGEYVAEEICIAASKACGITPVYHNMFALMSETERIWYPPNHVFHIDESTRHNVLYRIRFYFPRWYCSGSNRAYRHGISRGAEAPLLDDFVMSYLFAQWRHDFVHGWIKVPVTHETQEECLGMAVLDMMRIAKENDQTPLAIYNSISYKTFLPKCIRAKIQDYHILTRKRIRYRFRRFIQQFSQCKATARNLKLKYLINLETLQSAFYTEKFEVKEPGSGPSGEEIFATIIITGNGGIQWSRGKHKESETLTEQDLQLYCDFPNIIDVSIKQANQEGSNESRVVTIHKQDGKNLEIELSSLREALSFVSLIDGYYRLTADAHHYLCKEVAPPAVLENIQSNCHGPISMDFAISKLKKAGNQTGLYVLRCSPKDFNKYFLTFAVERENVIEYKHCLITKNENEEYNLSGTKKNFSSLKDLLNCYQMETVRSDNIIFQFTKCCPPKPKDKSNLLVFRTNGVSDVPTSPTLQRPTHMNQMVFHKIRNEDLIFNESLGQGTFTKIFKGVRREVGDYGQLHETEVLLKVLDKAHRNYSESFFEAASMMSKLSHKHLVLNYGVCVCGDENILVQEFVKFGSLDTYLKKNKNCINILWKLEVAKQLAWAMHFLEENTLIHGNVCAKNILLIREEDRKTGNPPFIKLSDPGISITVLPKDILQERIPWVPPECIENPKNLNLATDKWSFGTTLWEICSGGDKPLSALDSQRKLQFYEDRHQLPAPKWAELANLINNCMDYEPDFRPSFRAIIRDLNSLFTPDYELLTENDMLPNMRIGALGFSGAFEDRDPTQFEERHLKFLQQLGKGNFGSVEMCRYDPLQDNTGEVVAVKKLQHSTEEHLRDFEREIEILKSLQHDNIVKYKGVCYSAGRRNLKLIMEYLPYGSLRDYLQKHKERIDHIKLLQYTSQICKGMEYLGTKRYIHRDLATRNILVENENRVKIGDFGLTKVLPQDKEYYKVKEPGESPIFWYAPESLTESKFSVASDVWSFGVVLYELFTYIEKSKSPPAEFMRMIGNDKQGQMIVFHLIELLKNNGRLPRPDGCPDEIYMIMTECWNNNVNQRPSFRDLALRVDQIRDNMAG
# Chain of Myosin light chain kinase, smooth muscle (Homo sapiens) (Q15746 whole entry): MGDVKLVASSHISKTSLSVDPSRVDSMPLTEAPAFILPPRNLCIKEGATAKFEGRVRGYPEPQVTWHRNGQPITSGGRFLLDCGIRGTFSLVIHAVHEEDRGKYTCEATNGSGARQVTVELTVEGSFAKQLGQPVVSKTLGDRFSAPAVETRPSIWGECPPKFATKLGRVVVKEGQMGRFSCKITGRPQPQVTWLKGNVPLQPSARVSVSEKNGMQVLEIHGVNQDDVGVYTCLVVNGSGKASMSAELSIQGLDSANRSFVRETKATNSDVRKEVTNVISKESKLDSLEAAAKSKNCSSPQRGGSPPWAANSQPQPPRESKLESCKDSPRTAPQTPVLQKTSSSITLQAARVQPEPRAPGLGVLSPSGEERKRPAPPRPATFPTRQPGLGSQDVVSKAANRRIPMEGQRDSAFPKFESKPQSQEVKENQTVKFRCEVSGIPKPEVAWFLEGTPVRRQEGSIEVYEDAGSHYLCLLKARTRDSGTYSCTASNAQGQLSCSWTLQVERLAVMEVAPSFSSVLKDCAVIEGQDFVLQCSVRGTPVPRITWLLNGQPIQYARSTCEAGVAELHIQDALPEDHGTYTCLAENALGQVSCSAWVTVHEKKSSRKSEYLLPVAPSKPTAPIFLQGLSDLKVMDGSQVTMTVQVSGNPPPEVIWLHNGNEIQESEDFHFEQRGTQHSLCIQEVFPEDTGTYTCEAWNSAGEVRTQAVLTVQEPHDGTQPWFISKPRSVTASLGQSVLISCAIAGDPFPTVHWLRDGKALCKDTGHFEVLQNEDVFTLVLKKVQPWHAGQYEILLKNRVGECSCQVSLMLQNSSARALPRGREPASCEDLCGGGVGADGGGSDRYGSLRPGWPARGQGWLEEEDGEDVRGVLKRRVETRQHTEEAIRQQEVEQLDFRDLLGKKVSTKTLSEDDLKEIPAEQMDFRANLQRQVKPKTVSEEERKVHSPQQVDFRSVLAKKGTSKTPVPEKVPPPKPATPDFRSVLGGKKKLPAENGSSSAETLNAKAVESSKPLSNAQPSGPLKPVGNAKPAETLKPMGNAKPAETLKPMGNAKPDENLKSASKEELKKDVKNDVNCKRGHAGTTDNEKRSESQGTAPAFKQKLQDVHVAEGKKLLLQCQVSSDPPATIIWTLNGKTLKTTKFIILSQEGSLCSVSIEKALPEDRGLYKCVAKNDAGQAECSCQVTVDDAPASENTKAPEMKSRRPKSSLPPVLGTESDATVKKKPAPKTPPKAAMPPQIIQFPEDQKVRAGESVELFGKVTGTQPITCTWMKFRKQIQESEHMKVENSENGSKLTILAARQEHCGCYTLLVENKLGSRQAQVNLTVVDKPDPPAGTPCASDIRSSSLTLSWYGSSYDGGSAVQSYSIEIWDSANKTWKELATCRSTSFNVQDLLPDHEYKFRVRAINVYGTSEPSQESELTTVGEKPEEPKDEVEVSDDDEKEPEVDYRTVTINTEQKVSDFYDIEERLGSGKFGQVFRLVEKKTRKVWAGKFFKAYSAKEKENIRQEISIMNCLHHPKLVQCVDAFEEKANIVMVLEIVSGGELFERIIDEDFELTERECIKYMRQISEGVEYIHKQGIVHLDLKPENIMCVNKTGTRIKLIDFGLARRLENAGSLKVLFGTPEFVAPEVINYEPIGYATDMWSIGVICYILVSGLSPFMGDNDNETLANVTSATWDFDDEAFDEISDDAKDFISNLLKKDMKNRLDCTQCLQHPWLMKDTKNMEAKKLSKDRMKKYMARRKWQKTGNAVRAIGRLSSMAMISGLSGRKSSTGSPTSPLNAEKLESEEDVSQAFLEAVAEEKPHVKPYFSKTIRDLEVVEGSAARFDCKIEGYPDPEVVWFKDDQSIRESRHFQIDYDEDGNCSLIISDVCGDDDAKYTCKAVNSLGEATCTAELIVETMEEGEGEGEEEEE
Compound,Activity [1],Activity [2],Activity [3],Activity [4],Activity [5],Activity [6],Activity [7],Activity [8],Activity [9],Activity [10],Activity [11],Activity [12],Activity [13],Activity [14]
COc1ccc2c(c1)c(/C=C1\C(=O)Nc3ccc(S(N)(=O)=O)cc31)cn2C,12%,75%,80%,94%,93%,106%,109%,3%,96%,77%,97%,106%,90%,101%
CN(C)S(=O)(=O)c1ccc2c(c1)/C(=C/c1cn(C)c3ccc(O)cc13)C(=O)N2,68%,81%,87%,91%,99%,109%,104%,10%,96%,95%,89%,104%,78%,97%
CNS(=O)(=O)c1ccc2c(c1)/C(=C/c1cn(C)c3ccc(OC)cc13)C(=O)N2,59%,81%,94%,92%,90%,105%,99%,4%,86%,84%,100%,99%,89%,105%

# Results, then the molecule that gave them:
Activity [1],Activity [2],Activity [3],Activity [4],Activity [5],Activity [6],Activity [7],Activity [8],Activity [9],Activity [10],Activity [11],Activity [12],Activity [13],Activity [14],Compound
91%,80%,90%,94%,98%,111%,102%,18%,106%,96%,95%,100%,88%,98%,COc1ccc2c(c1)c(/C=C1\C(=O)Nc3ccc(S(=O)(=O)N(C)C)cc31)cn2C
6%,55%,81%,97%,104%,116%,104%,3%,85%,74%,84%,111%,85%,102%,Cn1cc(/C=C2\C(=O)Nc3ccc(S(N)(=O)=O)cc32)c2ccccc21
45%,49%,85%,94%,103%,114%,101%,6%,80%,93%,48%,117%,91%,90%,COc1ccc2[nH]cc(/C=C3\C(=O)Nc4ccc(S(N)(=O)=O)cc43)c2c1
